# Source: patent US20230255988A1 (CORNELL UNIVERSITY, priority 2020, published 2023)
# “Also recorded” adds a separate entry of the source.
# What was measured:
# Format in all cases: in vivo, human
# [1] = tested on: brain glucose utilization; assay: FDG PET spatial covariance pattern score (SSM/PCA, CDR-derived)
# Experimental: A multivariate machine learning approach was also applied to evaluate the FDG PET data (FIG. 10). Pattern-based methods have been increasingly applied to the evaluation of neurodegeneration and therapeutic response as they address the issue of complexity in comparing multiple regions and can increase signal to noise for analysis. Feature reduction was performed through use of the Scaled Subprofile Model (SSM), a form of Principal Components Analysis (PCA). The resulting components were used in regression modeling that determined spatial patterns of hypometabolism and hypermetabolism (or preservation relative to other regions) associated with the Clinical Dementia Rating (CDR) score.
# Specifically, SSM by performing PCA on the PET-data array was run, with a subsequent brain-behavioral regression to derive a best-fitting pattern whose pattern scores correlates with the CDR score in a negative direction (i.e., the higher the pattern score, the lower the CDR).
# To help with the imputation of the multivariate analysis, a generic multivariate decomposition was written as: Y(s,x)=w(s) v(x)+ε(s,x), where Y denotes the (log-transformed) data which depends on a participant and time index s and the voxel location x. […] The pattern score w(s) was chosen to correlate negatively with CDR across the data. The pattern v(x) is normalized to have unity Euclidean norm, i.e. ||v||=1. This means that the pattern score carries all information about the strength of the signal associated with the spatial pattern. Higher values of w(s) imply higher values of pattern-associated FDGPET signal in direct proportion in all regions.
# To estimate the topographic robustness of any patterns of interest, a bootstrap resampling procedure was performed 10,000 times, for which data were resampled with replacement and the complete analytic recipe was executed on the resampled data, generating distribution for pattern loadings. […] For the correct interpretation, it is worth noting that positive and negative loadings describe only relative, and not absolute differences, in the signal associated with any covariance pattern. Since the residual signal in ε(s,x) was stripped off, there cannot be assurance that there are absolute differences in the total data for the regions with robust loadings.
# After deriving and estimating the topographic robustness of the pattern, the pattern score was inspected for an effect of treatment at baseline and follow-up, also broken down by APOE ε4 status.
# [2] = tested on: amyloid positive patients with amnestic mild cognitive impairment (aMCI) or mild dementia due to AD; assay: AD Assessment Scale-Cognitive Subscale (ADAS-Cog), 12-month randomized placebo-controlled trial
# Description: ADAS-cog served as the primary endpoint. […] Assignment of patients. […] Using blocked, stratified randomization design, patients were assigned to the treatment or control group. […] Within this group, a separate randomization schedule was generated using the proc plan function in SAS statistics program for those with an MMSE greater than or less than or equal to 26 to balance their allocation patients to placebo or treatment groups. Using a block size of four for a total of seventy-six patients, 19 blocks were created to help ensure balanced recruitment into treatment and control groups within strata. The schedule was generated in advance by the statistician and provided to the blinded pharmacist in charge of executing the randomization. Two randomization worksheets stratified by MMSE were provided to the pharmacist, who randomized the patients. […] The patients were enrolled by the clinical study team and randomized by the pharmacist. The assignment to the treatment or placebo group was known only to the pharmacist and kept behind a triple lock. The patients received numbered bottles. The trial duration per participant was twelve months. […] AD Assessment Scale-Cognitive Subscale (ADAS-Cog) was the primary outcome measure. It indicates the severity of the most important symptoms of Alzheimer's disease. It consists of 11 tasks measuring the disturbances of memory, language, praxis, attention and other cognitive abilities (S. Balsis et al., Alzheimer's & Dementia, 8, 288-294, 2012; […] al., International Psychogeriatrics, 9, 123-138, 1997). The primary clinical outcome was ADAS-Cog, and secondary outcomes included the CDR score and fluorodeoxyglucose ([…]) imaging of the brain. AGE levels were an exploratory outcome. The primary analysis followed Intention-to-Treat (ITT) and the secondary analysis was per-protocol. The per-protocol analysis omitted one placebo participant who took benfotiamine from a commercial vendor. The ITT and per-protocol analysis are presented for the primary outcome ADAS-cog and the secondary measure CDR. For the other measures, only per-protocol analysis are presented. The primary analysis was done on the ITT data. The Last-Observation-Carry-Forward (LOCF) method was used to impute the missing values of ADAS total score and the secondary endpoints such as CDR as well for each time point. The primary analysis was done on ITT data which were imputed with LOCF method. Per-protocol analysis was done as a sensitivity analysis and as observational comparisons (F. J. Molnar et al., Canadian Medical Association Journal, 179, 751, 2008).
# [3] = tested on: amyloid positive patients with amnestic mild cognitive impairment (aMCI) or mild dementia due to AD; assay: Alzheimer's Disease Cooperative Study-Activities of Daily Living (ADCS-ADL), 12-month trial; conditions: 12 months
# Description: The trial duration per participant was twelve months.
# Alzheimer's Disease Cooperative Study-Activities of Daily Living (ADCS-ADL). The ADCS-ADLSIV is a caregiver-based ADL scale composed of 19 items developed for use in dementia clinical studies (D. Galasko et al., Alzheimer Disease and Associated Disorders, 11, S33-S39, 1997). It assesses the patient's performance of both basic and instrumental activities of daily living, such as those necessary for personal care, communicating and interacting with other people, maintaining a household, conducting hobbies and interests, as well as making judgments and decisions. Higher numbered scores and answers of “yes” reflect a more self-sufficient individual. Therefore, the higher total score correlates with higher cognitive function. The total score is the sum of all items and sub-questions.
# [4] = tested on: amyloid positive patients with amnestic mild cognitive impairment (aMCI) or mild dementia due to AD; assay: Buschke Selective Reminding Test (SRT), 12-month trial; conditions: 12 months
# Description: The trial duration per participant was twelve months. […] The Buschke Selective Reminding Test (SRT) is a standard diagnostic tool in the assessment of verbal memory. Several studies attest to its predictive value for dementia.
smiles,measurement,setting,value
C/C(=C(\CCOP(=O)(O)O)SC(=O)c1ccccc1)N(C=O)Cc1cnc(C)nc1N [benfotiamine],"CDR-derived FDG PET pattern, treatment effect in APOE ε4 negative population","[1]; 12 months, p=0.019",treatment effect at 12 months; also recorded: show a treatment effect
same,"CDR-derived FDG PET pattern, treatment effect in APOE ε4 positive population","[1]; 12 months, p=0.255",not in APOE ε4 positive population; also recorded: do not
same,"longitudinal change in pattern score (follow-up minus baseline), treated versus untreated","[1]; 59 participants who completed follow-up, p=0.638",No difference in longitudinal change
same,"FDG PET pattern score at time point of 12 months, treatment versus untreated",[1]; FIG. 10A,slightly but significantly higher
same,"FDG PET pattern score, change from baseline to 12 months versus untreated","[1]; all participants, APOE status not considered",significantly higher change from baseline to 12 months in treated than untreated participants
same,ADAS-cog change from baseline at 12 months,"[2]; ITT analysis, 2×300 mg per day, 12 months, placebo 3.26",1.39
same,"ADAS-cog unadjusted change baseline to 12 months, difference versus placebo","[2]; ITT, mixed effect model p=0.071, GEE p=0.137, Wilcoxon p=0.098",favoring benfotiamine
same,"ADAS score change Mean (SD), baseline to month 12","[2]; Per-protocol, unadjusted, 2×300 mg per day, placebo 3.2 (5.66)",0.96 (5.41)
same,ADAS-cog effect modification by APOE ε4 allele carrier status,[2]; exploratory,no effect modification
same,ADAS-cog effect modification by sex,"[2]; exploratory, not statistically significant",males might have been more responsive
same,ADAS-cog response by baseline MMSE,"[2]; post-hoc, MMSE>=26 p=0.027, MMSE<26 p=0.99",stronger response among those with a higher MMSE at baseline
same,ADCS-ADL score versus placebo,[3],no significant differences
same,Buschke SRT score and change in score versus placebo,"[4]; p=0.177, change 0.315",no significant change
same,Buschke SRT score course over time,[4]; placebo showed a downward trend,stable scores
